Data: patent publication US12616203B2, “Use of 3-isoxazolidinones compounds as selective herbicides” (FMC Corporation, priority 2014, dated 2026)
Like-named read-outs stand apart in the source and are kept apart here.

Key:
Cheat = assay: Ex18 PRE 2,4-DC + clomazone, % control 28 DAT, Colby; format: in vivo, Bromus secalinus
From the text: Additional treatments included application of metazachlor (Butisan®, 43.1%) at 750 g ai/ha, napropamide (Devrinol DF®, 50%) at 1260 g ai/ha, and dimethachlor (Teridox®, 48%) at 1000 g ai/ha. […] Treatments were applied just after the seeding of annual bluegrass, cheat, wild oat, quackgrass, field violet, blackgrass, littleseed canarygrass, silky windgrass, yellow foxtail, and goosegrass. […] Flats were watered and fertilized routinely after treatment application. Each treatment was replicated three times.

wheat = format: in vivo; conditions: 14 DAT, POST, 2,4-DC 210 g ai/ha
Protocol: (§1) Treatments were applied to wheat and barley crops.
(§2) Nonionic surfactant was added at 0.5% v/v in all treatments. Treatments were applied to wheat (5.5″), barley (5″), wild oat (5.5″), common chickweed (2″), wild buckwheat (3″), and common lambsquarters (2″). All plant species were direct seeded into 3″ plastic pots using metro-mix as growth media and pots were watered well before application and watered 24 h after application. Plants were watered and fertilized routinely after treatment application. Each treatment was replicated four times.

Barley = format: in vivo; conditions: 14 DAT
Protocol: as §1, §2

canola and wheat = assay: Ex43 PRE crop safety; format: in vivo; conditions: crop and rate in the words
weeds = assay: Ex20 PRE greenhouse; format: in vivo; conditions: weed and rate in the words
From the text: Herbicides: • 2,4 DC-21 (36.7% CS): 125, 170, 210, or 250 g ai/ha alone and as tank-mix with dimethenamid-P • Dimethanamid-P (Outlook, 63.9%): 250, 375, 500 g ai/ha in combination with 2,4 DC and alone, additional treatment alone at 750 g ai/ha. • Metazachlor (Butisan 43.1%): 500 g ai/ha
Herbicides included as standards for comparison were metazachlor plus dimethenamid-P (500 g) as tank mix combination. […] Treatments were replicated 3 times. […] Thereafter flats were watered and fertilized routinely.

yellow nutsedge (YN) = assay: PRE greenhouse, 2,4-DC + sulfentrazone, % control; format: in vivo, Cyperus esculentus; conditions: 28 DAT, g ai/ha by row: r8-16 2,4-DC 50/100/200 (3 rows each) + sulfentrazone 105/210/315 (cycling)
Protocol: Test compositions containing 2,4-DC Example 1B and sulfentrazone (Spartan® 4F, 39.6% active ingredient, FMC Corp.) and mixtures of 2-(2,4-dichlorophenyl)methyl-4,4-dimethyl-3-isoxazolidinone and sulfentrazone, were diluted with water to provide the appropriate test rate concentration.
The test weeds were Pennsylvania smartweed (PS) (Polygonum pennsylvanicum), Palmer amaranth (PA) (Amaranthus palmeri), velvetleaf (VL) (Abutilon theophrasti), green foxtail (GF) (Setaria viridis), morningglory (MG) (Ipomoea spp.), yellow nutsedge (YN) (Cyperus esculentus), purple nutsedge (PN) (Cyperus rotundus), and benghal dayflower (BD) (Commelina benghalensis). Crops included in the evaluation were corn, wheat, and cowpea.
For pre-emergence testing, four disposable fiber flats (6″ by 10″) for each rate of application of each herbicide solution were filled with top soil, to which seeds of each species were planted in furrows made by a template pressed on the top of the soil. The furrows with crop/weed seeds were covered with soil and were watered well before application of the test compounds. Flats designated for treatment were placed in a spray chamber having a static platform and a movable sprayer and height of the spray nozzle was 10.5 inches above the soil level. Once the sprayer was calibrated using water for spray volume of 30 gallons per acre, flats were sprayed with sprayer at a speed to receive a coverage equivalent of 30 gallons per acre.
The application rates are those shown in Table 3, 3A, an d 3B below for the individual herbicidal solutions and the herbicide compositions of the present invention. The pre-emergence flats were immediately placed in the greenhouse and watered lightly after treatment for herbicide activation. Thereafter they were regularly watered and feterilized for the duration of the test. The control of weeds was evaluated in each experimental test at 28 days after treatment (DAT), 14 DAT for crops. The results, shown as an average of the replications, were compared with results observed in untreated control flats in the same tests. Percent weed control was determined by a method similar to the 0 to 100 rating system disclosed in “Research Methods in Weed Science,” 2nd ed., B. Truelove, Ed.; Southern Weed Science Society; Auburn University, Auburn, Ala., 1977.

[1] = test system: weeds; corn, wheat, cotton, cowpea, and bush bean; assay: Ex42 PRE greenhouse; format: in vivo; conditions: crop and rate in the words
From the text: Thereafter flats were watered and fertilized routinely.

Morningglory sp. = assay: Ex38 PRE 2,4-DC + pyroxasulfone, % control 28 DAT, Colby; format: in vivo, Ipomea spp
From the text: Pyroxasulfone plus fluthiacet-methyl (ANTHEM™, 23.3%) applied at 165 g ai/ha was included as a standard for comparison. […] Thereafter flats were watered and fertilized routinely.

Wild oat [2] = assay: Ex12 PRE 2,4-DC + dimethenamid-P, % control 28 DAT, Colby; format: in vivo, Avena fatua
Protocol: The tested weeds include: wild buckwheat (Polygonum convolvulus, POLCO), velvetleaf (Abutilon theophrasti, ABUTH), cheat (Bromus secalinus, BROSE), wild oat (Avena fatua, AVEFA), radish (Raphanus sativus, RAPSN), corn poppy (Papaver rhoeas, PAPRH), yellow foxtail (Setaria pumila, SETLU), Italian ryegrass (Lolium perenne ssp. multiflorum, LOLMU). The tested crop was Oilseed rape.
This greenhouse study was conducted to assess the preemergence (PRE) weed control and oilseed rape tolerance with 2,4 DC (CS 36.7%) and dimethenamid-P (Outlook®, 63.9%) tank-mix combinations.
Metazachlor (Butisan, 43.1%) plus dimethenamid-P applied as tank mix at 500 g each was applied as commercial standard. Treatments were replicated 3 times and flats were watered after planting but before the treatment and then lightly watered after treatment application. Thereafter flats were watered and fertilized routinely.

Wild oat [3] = assay: Ex32 PRE 2,4-DC + pyroxasulfone + sulfentrazone, % control 28 DAT, Colby; format: in vivo, Avena fatua
From the text: Treatments were applied at the time of planting to Italian ryegrass, green foxtail, littleseed canarygrass, wild oat, quackgrass, dandelion, common chickweed, white clover, yellow nutsedge, redroot pigweed, field bindweed, canola, and wheat. […] Flats were watered and fertilized routinely after treatment application.

## CC1(C)CON(Cc2ccc(Cl)cc2Cl)C1=O [2,4-DC, 2-(2,4-dichlorophenyl)methyl-4,4-dimethyl-3-isoxazolidinone]
Cheat; 2,4-DC alone 125 g ai/ha
  X: 6%
Cheat; 2,4-DC alone 170 g ai/ha
  X: 11%
Cheat; 2,4-DC alone 210 g ai/ha
  X: 12%
Cheat; 2,4-DC alone 250 g ai/ha
  X: 25%
wheat
  % crop injury for 2,4-DC alone: 31%
Barley; POST, 2,4-DC 125 g ai/ha
  % crop injury for 2,4-DC alone: 17%
Barley; POST, 2,4-DC 170 g ai/ha
  % crop injury for 2,4-DC alone: 17%
Barley; POST, 2,4-DC 210 g ai/ha
  % crop injury for 2,4-DC alone: 18%
Barley; POST, 2,4-DC 250 g ai/ha
  % crop injury for 2,4-DC alone: 23%
Canola and wheat
  crop safety in words: alone was safe (≤10% injury) on canola at ≤200 g ai/ha and safe on wheat at ≤100 g
weeds
  weed control in words: applied alone at 125 g ai/ha controlled (≥85% injury) Canada thistle, giant foxtail, goosegrass, and common chickweed
Yellow nutsedge (YN); r17-19 2,4-DC 50/100/200, r20-22 sulfentrazone 105/210/315, 50 g ai/ha
  % Control YN: 10%
Yellow nutsedge (YN); r17-19 2,4-DC 50/100/200, r20-22 sulfentrazone 105/210/315, 100 g ai/ha
  % Control YN: 12%
Yellow nutsedge (YN); r17-19 2,4-DC 50/100/200, r20-22 sulfentrazone 105/210/315, 200 g ai/ha
  % Control YN: 13%
[1]
  crop safety in words: applied alone was safe at all rates on all crops at 14 DAT
Morningglory sp.; PRE, 2,4-DC 50 g ai/ha
  X (% control, 2,4-DC alone): 0%
Morningglory sp.; PRE, 2,4-DC 100 g ai/ha
  X (% control, 2,4-DC alone): 2%
Morningglory sp.; PRE, 2,4-DC 200 g ai/ha
  X (% control, 2,4-DC alone): 2%
Wild oat [2]; 2,4-DC alone 125 g ai/ha
  X: 9%
Wild oat [2]; 2,4-DC alone 170 g ai/ha
  X: 27%
Wild oat [2]; 2,4-DC alone 210 g ai/ha
  X: 27%
Wild oat [2]; 2,4-DC alone 250 g ai/ha
  X: 29%
Wild oat [3]; 2,4-DC alone 50 g ai/ha
  X: 28%
Wild oat [3]; 2,4-DC alone 100 g ai/ha
  X: 28%
Wild oat [3]; 2,4-DC alone 200 g ai/ha
  X: 67%
